Legend:
Conditions in all cases: read-out: Km[HCO3 ^-]; pH 8, 50 mM NaCl, 24 °C; labelled compound; corrected for respiratory Ci
SbtA7942 = target: T1, SbtA7942 (Synechococcus elongatus, UniProt Q31N64)
T1 construct: gene Synpcc7942_1475

SbtA5701 (SbtA1) = test system: T2, SbtA5701 (SbtA1)
T2 construct: gene sbtA

SbtA6803 = target: T3, SbtA6803 (Synechocystis sp. PCC 6803, UniProt P73953)
T3 construct: gene slr1512

SbtA6307 (SbtA1) = test system: T4, SbtA6307 (SbtA1)
T4 construct: gene sbtA

Measured: Km

T1 sequence (Q31N64 1-373): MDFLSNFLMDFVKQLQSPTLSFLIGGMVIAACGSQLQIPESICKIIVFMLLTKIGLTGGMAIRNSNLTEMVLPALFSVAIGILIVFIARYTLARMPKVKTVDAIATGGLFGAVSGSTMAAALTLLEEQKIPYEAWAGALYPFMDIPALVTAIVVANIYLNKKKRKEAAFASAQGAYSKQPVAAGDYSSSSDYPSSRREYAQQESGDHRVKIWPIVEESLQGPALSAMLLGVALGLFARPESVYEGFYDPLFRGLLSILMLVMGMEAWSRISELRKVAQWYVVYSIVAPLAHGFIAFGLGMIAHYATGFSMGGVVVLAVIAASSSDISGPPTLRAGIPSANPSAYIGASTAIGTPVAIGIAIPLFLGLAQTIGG
T3 sequence (P73953 1-374): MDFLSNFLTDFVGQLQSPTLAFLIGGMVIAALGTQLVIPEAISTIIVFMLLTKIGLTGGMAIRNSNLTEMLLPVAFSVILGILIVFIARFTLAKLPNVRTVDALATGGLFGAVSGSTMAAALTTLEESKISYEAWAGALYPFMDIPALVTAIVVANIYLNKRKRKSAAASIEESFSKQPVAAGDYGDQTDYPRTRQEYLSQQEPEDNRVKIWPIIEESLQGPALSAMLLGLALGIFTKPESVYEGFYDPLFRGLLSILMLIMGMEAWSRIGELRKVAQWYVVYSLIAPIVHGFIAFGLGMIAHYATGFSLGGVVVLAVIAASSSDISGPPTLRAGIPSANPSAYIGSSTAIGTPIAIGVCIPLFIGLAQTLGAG

O=C(O)O [HCO3 ^-]
< 100 µM: SbtA7942 | SbtA5701 (SbtA1) | SbtA6803 | SbtA6307 (SbtA1)
